Measured values: US20230346831A1, “METHODS FOR TREATING […] USING LOW DOSE CARBON MONOXIDE” (priority 2020, published 2023)

Assays:
[1] = tested on: non-malignant BJ fibroblasts; assay: in vitro transwell migration assay; assay type: cell-based; details: 250 ppm CO
Protocol: Migration of different cancer cells under control air or 250 ppm CO treatment with or without supplement of 30 µM hemin was determined using in vitro transwell migration chamber with a serum gradient. Indicated cell lines were seeded into the transwell inserts. 16 hours later, cells on the top of the upper chambers were removed, and cells on the bottom surface of the transwell inserts were fixed, stained with crystal violet, and counted from eight randomly picked fields in three independent experiments. Error bars represent SEM. *: P < 0.05, two-sided t-test. Scale bar, 100 µm. […] Cells were seeded in the upper chamber of 8-µm porous polycarbonate membranes with DMEM containing 0% or 1% FBS, 0.2 mM L-glutamine, 1% penicillin/streptomycin. The lower chambers were filled with DMEM containing 10% or 20% FBS, 0.2 mM L-glutamine, and 1% penicillin/streptomycin (please see Table 1).
6.5 mm Transwell with 8.0 µm Pore Polycarbonate Membrane Insert (Corning, NY, Cat. No. 3422) was used for the cell migration assay (FIG. 1J). After 16 hours of incubation, cells migrated to the opposite side of the upper chambers were fixed with 4% paraformaldehyde, stained with 0.2% crystal violet for 30 min and counted in five fields under × 20 magnification. In parallel, cells were seeded on 24-well plates for proliferation assay. […] The optical density was measured at 595 nm (OD595). […]

N134/RHAMM^B cells = assay: tail vein liver metastasis model; assay type: in vivo; details: 1.5 × 10^6 N134/RHAMM^B cells tail vein, NSG mice, 250 ppm CO 3 hours daily, 24 days
Protocol: NSG mice were injected with 0.1 million (FIGS. 3A-3B) or 5 × 10^4 (FIGS. 3C-3E) MDA-MB-231/TGL breast cancer cells through tail vein or 8988T/TGL pancreatic cancer cells through spleen (FIGS. 3F-3H). Mice were randomly divided into two groups after injection. One group of mice was kept in regular mouse holding room all the time while the other group was treated with 250 ppm CO for 3 hours daily starting one day after injection. FIGS. 3C and 3F: bioluminescent imaging was taken at day 0, day 1, day3 and then once a week and signals from the whole mice were plotted. FIGS. 3A, 3D and 3G: organs were harvested for histological analysis. Representative H&E stained images of metastatic tumors in the lung sections (FIGS. 3A and 3D) and in the liver sections (FIG. 3G) were shown. Metastatic tumor areas or numbers of mets on the H&E stained sections for each mouse were quantified (FIGS. 3B, 3E and 3H).
In another experiment, immunodeficient NOD/scid-IlL2Rgc knockout mice were injected with 1.5 × 10^6 N134/RHAMM^B cells in 120 µl PBS via tail veins. Tumors developed 24 days after injection with 1.5 × 10^6 N134/RHAMM^B cells, and livers were assessed.

Bach 1 = assay: Western blot analysis; assay type: cell-based, human; details: two breast cancer cell lines (MCF7, MDA-MB-231); 250 ppm CO
Protocol: (§1) 1.5 × 10^6 cells were seeded in 6-cm cell culture plates with DMEM containing 10% FBS, 0.2 mM L-glutamine and 1% penicillin/streptomycin. Additionally, MCF7/TGL/pQ was cultured in media containing 0.5 µgml^-1 puromycin and 25 mM HEPES. After 16 hours of incubation, cells were lysed with RIPA buffer (0.1% SDS, 1% TritonX-100, 0.5% sodium deoxycholate, 25 mM Tris pH 8.0, 150 mM NaCl, and 1 mM EDTA) supplemented with a protease inhibitor mixture and PhosSTOP (Roche, Basel, Switzerland). Proteins were quantified with Bradford assay (Bio-Rad, Hercules CA). Equal amounts of proteins were separated with SDS-PAGE and transferred to nitrocellulose membranes. […] Protein bands were visualized by enhanced chemical luminescence (Pierce, Dallas, TX).
(§2) To investigate how CO reduces heme levels, whether CO decreased the transportation of heme into the cytosol was examined. […] Likewise, changes in protein levels of Bach 1 (a physiological repressor of HO-1 and a pro-metastatic transcription factor, whose degradation is reported to be mediated by heme in Nrf2-mutated lung cancer) was not detected (FIG. 4E). […]

HO-1 = assay: Western blot analysis; assay type: cell-based, human; details: two breast cancer cell lines (MCF7, MDA-MB-231); 250 ppm CO
Protocol: as §1, §2

FLVCR1 = assay: expression of heme exporter; assay type: cell-based, human; details: MCF7/TGL and MDA-MB-231/TGL cells; with or without 250 ppm CO
Description: To investigate how CO reduces heme levels, whether CO decreased the transportation of heme into the cytosol was examined. […] Furthermore, heme oxygenases (HO-1, HO-2, and HO-3) cleave heme into 3 products: CO, ferrous ions (Fe2+), and biliverdin. […] So, whether there was an increase of HO-1 expression by low-dose CO treatment that could contribute to heme degradation was examined. […] Likewise, changes in protein levels of Bach 1 (a physiological repressor of HO-1 and a pro-metastatic transcription factor, whose degradation is reported to be mediated by heme in Nrf2-mutated lung cancer) was not detected (FIG. 4E). […] Taken together, CO decreased heme importers to lower intracellular heme levels, which inhibited cancer cell migration.

[C-]#[O+] [CO, Carbon monoxide]
migration [1]: only slightly reduced
total metastatic pancreatic tumor burden in the liver (N134/RHAMM^B cells): showed a trend to reduce
liver metastases (N134/RHAMM^B cells; vs untreated controls): reduced
changes in protein levels of Bach 1 (Bach 1): not detected
increase of HO-1 expression (HO-1): not detected
FLVCR1 (heme exporter) expression (FLVCR1): no significant/consistent changes
